In US20160051560A1, “TREATMENTS INVOLVING ESLICARBAZEPINE OR ESLICARBAZEPINE ACETATE” (BIAL - PORTELA & Cª, S.A., priority 2013, published 2016):

Test system: patients with bipolar I disorder who responded to treatment in the acute phase studies
Assay: Study BIA-2093-205: recurrence prevention study (2-week open-label Part I, double-blind fixed dose Part II)
Type: in vivo, human
Conditions: for Patient worsening status according to CGI-BP Scale: No worsening / Patient worsening status according to CGI-BP Scale: Worsening: Part II; for Patient worsening status according to CGI-BP Scale: No worsening / Patient worsening status according to CGI-BP Scale: Worsening / median time to withdrawal / patients who withdrew / proportion of patients with MADRS scores ≧18 (depressive symptomatology) / proportion of patients with YMRS scores ≧15 (manic symptomatology) / mean (SD) highest mood scores (patient e-diary, 100-point visual analogue scale) / mean (SD) overall lowest mood scores (patient e-diary, 100-point visual analogue scale): ITT; for mean (SD) highest mood scores (patient e-diary, 100-point visual analogue scale) / mean (SD) overall lowest mood scores (patient e-diary, 100-point visual analogue scale) / patients who withdrew (AE section; withdrawing because of AEs): double-blind period
Protocol: Part I followed an open-label design in which all participants received treatment with ESL 900 mg QD for 2 weeks. Part II followed a double-blind, parallel-group, fixed multiple dose design in which participants were randomly assigned (1:1:1) to one of the following treatment groups: (1) ESL 1800 mg QD, (2) ESL 900 mg QD, and (3) ESL 300 mg QD. […] The occurrence of a new manic/depressive episode was considered a treatment failure, and the patient was discontinued from the study.
If the patient had—in change from preceding phase scale—a score of 5, 6, or 7 in any of 3 categories (mania, depression, or overall bipolar disorder), the illness was considered to have worsened. Secondary efficacy variables included: proportion of patients developing manic symptomatology (YMRS score ≧15); proportion of patients developing depressive symptomatology (MADRS score ≧18); the highest and lowest mood state, collected in the patient diary card; and time to withdrawal. All efficacy assessments were evaluated at each study visit.
Mood was self-evaluated in a 100-point visual analogue scale using the DiaryPRO™ software (Invivodata®, Inc.) implemented on a touch-screen device (Palm™ OS). Patients completed their training in the e-diary use in V1 and were assisted by the study staff when necessary. Data were collected and transferred from the patient's home to the study server on a daily basis.
Medical history and demographic information was obtained at the screening visit. A complete physical and neurological examination was performed at screening, V7 or early discontinuation (EDV), V8 and post-study visit (PSV). Vital signs (pulse rate and blood pressure) were determined at every visit. […] Clinically significant abnormalities in laboratory tests, vital signs or 12-lead ECG were considered as AEs.
Safety was evaluated based on the occurrence of AEs. AEs were documented by the investigator with reference to intensity, dates of occurrence and resolution, outcome and relation to the treatment (causality). Furthermore, each AE was classified as being serious or non-serious. All patients with AEs were followed until their resolution. AEs were coded according to the Medical Dictionary for Regulatory Activities (MedDRA).
Proportions of patients were compared between treatment groups using a Cochran-Mantel-Haenszel (CMH) test stratified by region. […] In all analyses, if the treatment effect was significant (p<0.05) pairwise comparisons were to be performed to assess the differences.
Changes in total YMRS, CGI-BP and MADRS scores were tested by analysis of covariance (ANCOVA) using baseline score value, region, treatment and region-by-treatment interaction as covariates; Dunnett's multiple comparison procedure was used for the comparison of the treatment means. ANCOVA was used to evaluate the change in YMRS score from baseline to the end of the 3-week treatment period, the CGI-BP score at the end of the 3-week treatment period, the MADRS score at the end of the 3-week treatment period, and the highest and lowest mood states (the mean highest and lowest score for each patient was calculated for intervals of 28 calendar days).
Survival analysis was performed using log-rank test/Kaplan-Meier and Cox proportional hazards model.

[1] = Part II Double-Blind Period, ESL 300 mg, n = 35
[2] = Part II Double-Blind Period, ESL 900 mg, n = 26
[3] = Part II Double-Blind Period, ESL 1800 mg, n = 26

CC(=O)O[C@H]1Cc2ccccc2N(C(N)=O)c2ccccc21 [ESL, (S)-10-acetoxy-10,11-dihydro-5H-dibenz[b,f]azepine-5-carboxamide]
Patient worsening status according to CGI-BP Scale: No worsening (ESL 300 mg QD, n = 34): 26 (76.5) n (%) | Patient worsening status according to CGI-BP Scale: Worsening (ESL 300 mg QD, n = 34): 6 (17.6) n (%) | serious AE: mania (ESL 300 mg group): 2 cases | proportion of patients who prematurely discontinued (ESL 300 mg group (n=19)): 54.3% | median time to withdrawal (ESL 300 mg group): 254 days | patients who withdrew (ESL 300 mg group): 52.9% | proportion of patients with MADRS scores ≧18 (depressive symptomatology) (ESL 300 mg): 14.7% | proportion of patients with YMRS scores ≧15 (manic symptomatology) (ESL 300 mg): 8.8% | mean (SD) highest mood scores (patient e-diary, 100-point visual analogue scale) (ESL 300 mg): 49.2 (11.0) | mean (SD) overall lowest mood scores (patient e-diary, 100-point visual analogue scale) (ESL 300 mg): 45.9 (10.4) | Patient worsening status according to CGI-BP Scale: No worsening (ESL 900 mg QD, n = 25): 14 (56.0) n (%) | Patient worsening status according to CGI-BP Scale: Worsening (ESL 900 mg QD, n = 25): 10 (40.0) n (%) | serious AE: anaemia (ESL 900 mg group): 1 case | serious AE: disease progression (ESL 900 mg group): 1 case | serious AE: oesophageal stenosis (ESL 900 mg group): 1 case | serious AE: pneumonia (ESL 900 mg group): 1 case | proportion of patients who prematurely discontinued (ESL 900 mg group (n=14)): 53.8% | median time to withdrawal (ESL 900 mg group): 295 days | patients who withdrew (ESL 900 mg group): 52.0% | proportion of patients with MADRS scores ≧18 (depressive symptomatology) (ESL 900 mg): 0.0% | proportion of patients with YMRS scores ≧15 (manic symptomatology) (ESL 900 mg): 16.0% | mean (SD) highest mood scores (patient e-diary, 100-point visual analogue scale) (ESL 900 mg): 50.6 (6.4) | mean (SD) overall lowest mood scores (patient e-diary, 100-point visual analogue scale) (ESL 900 mg): 47.3 (12.4) | Patient worsening status according to CGI-BP Scale: No worsening (ESL 1800 mg QD, n = 26): 16 (61.5) n (%) | Patient worsening status according to CGI-BP Scale: Worsening (ESL 1800 mg QD, n = 26): 6 (23.1) n (%) | serious AE: bronchitis (ESL 1800 mg group): 1 case | serious AE: depression (ESL 1800 mg group): 1 case | serious AE: disease progression (ESL 1800 mg group): 1 case | proportion of patients who prematurely discontinued (ESL 1800 mg group (n=19)): 73.1% | median time to withdrawal (ESL 1800 mg group): 109 days | patients who withdrew (ESL 1800 mg group): 73.1% | proportion of patients with MADRS scores ≧18 (depressive symptomatology) (ESL 1800 mg): 11.5% | proportion of patients with YMRS scores ≧15 (manic symptomatology) (ESL 1800 mg): 19.2% | mean (SD) highest mood scores (patient e-diary, 100-point visual analogue scale) (ESL 1800 mg): 55.1 (10.4) | mean (SD) overall lowest mood scores (patient e-diary, 100-point visual analogue scale) (ESL 1800 mg): 51.1 (12.3) | patients who showed no worsening according to the CGI-BP scale (ITT population, all treatment groups (300, 900, 1800 mg), no significant dose difference (p=0.250)): at least 50% | Any Adverse Events (Part I Open-Label Period, ESL 900 mg, n = 104): 20 (19.2) Number (%) of patients | Agitation [1]: 2 (5.7) Number (%) of patients | Any Adverse Events [1]: 14 (40.0) Number (%) of patients | Aspartate amino-transferase increased [1]: 0 (0.0) Number (%) of patients | Blood creatine phosphokinase increased [1]: 1 (2.9) Number (%) of patients | Bronchitis [1]: 0 (0.0) Number (%) of patients | Depression [1]: 3 (8.6) Number (%) of patients | Dizziness [1]: 0 (0.0) Number (%) of patients | Mania [1]: 2 (5.7) Number (%) of patients | Nausea [1]: 0 (0.0) Number (%) of patients | Sinus tachycardia [1]: 2 (5.7) Number (%) of patients | Agitation [2]: 0 (0.0) Number (%) of patients | Any Adverse Events [2]: 14 (53.8) Number (%) of patients | Aspartate amino-transferase increased [2]: 0 (0.0) Number (%) of patients | Blood creatine phosphokinase increased [2]: 0 (0.0) Number (%) of patients | Bronchitis [2]: 1 (3.8) Number (%) of patients | Depression [2]: 3 (11.5) Number (%) of patients | Dizziness [2]: 0 (0.0) Number (%) of patients | Mania [2]: 0 (0.0) Number (%) of patients | Nausea [2]: 0 (0.0) Number (%) of patients | Sinus tachycardia [2]: 1 (3.8) Number (%) of patients | Agitation [3]: 1 (3.8) Number (%) of patients | Any Adverse Events [3]: 18 (69.2) Number (%) of patients | Aspartate amino-transferase increased [3]: 2 (7.7) Number (%) of patients | Blood creatine phosphokinase increased [3]: 3 (11.5) Number (%) of patients | Bronchitis [3]: 2 (7.7) Number (%) of patients | Depression [3]: 1 (3.8) Number (%) of patients | Dizziness [3]: 3 (11.5) Number (%) of patients | Mania [3]: 0 (0.0) Number (%) of patients | Nausea [3]: 3 (11.5) Number (%) of patients | Sinus tachycardia [3]: 0 (0.0) Number (%) of patients | deaths (all treatment groups): No deaths occurred | patients who withdrew (AE section; withdrawing because of AEs) (ESL 300 mg group (n=3)): 8.6% | patients who withdrew (AE section; withdrawing because of AEs) (ESL 900 mg group (n=3)): 11.5% | patients who withdrew (AE section; withdrawing because of AEs) (ESL 1800 mg group (n=1)): 3.8% | patients with AEs (open-label period, ESL 900 mg QD (20 patients)): 19.2% | number of AEs reported (open-label period, ESL 900 mg QD, in 20 patients): 42 AEs | premature discontinuation because of treatment failure (overall (n=22), similar proportions between treatment groups): 21.2% | patients completed 6 months of treatment (overall, of 104 patients enrolled in Part I (n=35)): 33.7% | incidence of treatment-related AEs (recurrence prevention study, comparable between treatment groups): < 25 % of patient
